In US6420455B1, “Antimicrobial composition containing photosensitizers articles, and methods of use” (3M Innovative Properties Company, priority 1999, dated 2002):

Columns and labels:
Assay in all cases: Zone of inhibition of dye-dipped filter disks on agar lawn
Staph. Aureus = assay type: cell-based, Staphylococcus aureus; conditions: for Zone of Inhibition in Dark: 10 mg/ml dye in water on 6-mm disk; for Zone of Inhibition in Room Light (after 30 min.) / Zone of Inhibition in Room Light, 15 Minutes / Zone of Inhibition in Room Light Overnight: 10 mg/ml dye on 6-mm disk
Experimental: (§1) The procedure used for testing for antibacterial and antifungal activity is as follows.
Bacteria or fungi stock was plated onto Trypticase Soy Broth (TSB) agar (Becton Dickinson, Cockeysville, Md.) and incubated at 37° C. overnight, at which time several colonies were transferred to phosphate buffered saline (PBS) to give a solution with final concentration of 10^6 bacteria/ml or fungi/ml, as determined by comparison of turbidity with McFarland standards. Subsequently, a lawn of the bacterium or fungus was prepared by triple swabbing a Trypticase Soy broth agar plate (prepared using TSB and agar according to label instructions). Then, 6-mm diameter paper filter disks were dipped into one of the dyed solutions, blotted to remove the excess solution, and placed on the agar plates. […]
(§2) The plates were removed from the incubator and inspected for clear areas surrounding treated 6-mm filter disks that are indicative of prevention of growth of bacteria. The diameter of each clear area was measured and recorded and compared with controls.

E. faecium = assay type: cell-based, Enterococcus faecium; conditions: for Zone of Inhibition in Dark: 10 mg/ml dye on 6-mm disk
Experimental: as §1
(§3) Bacteria or fungi stock was plated onto Trypticase Soy Broth (TSB) agar (Becton Dickinson, Cockeysville, Md.) and incubated at 37° C. overnight, at which time several colonies were transferred to phosphate buffered saline (PBS) to give a solution with final concentration of 10^6 bacteria/ml or fungi/ml, as determined by comparison of turbidity with McFarland standards. Subsequently, a lawn of the bacterium or fungus was prepared by triple swabbing a Trypticase Soy broth agar plate (prepared using TSB and agar according to label instructions). Then, 6-mm diameter paper filter disks were dipped into one of the dyed solutions, blotted to remove the excess solution, and placed on the agar plates. Each plate was then either kept in the dark (control) or irradiated for 15 minutes in room light or for overnight in room light before incubation at 37° C. for 24 hours.
as §2

C. albicans = assay type: cell-based, Candida albicans; conditions: for Zone of Inhibition in Dark: 10 mg/ml dye on 6-mm disk
Experimental: as §1, §3, §2

P. aeruginosa = assay type: cell-based, Pseudomonas aeruginosa; conditions: for Zone of Inhibition in Dark: 10 mg/ml dye on 6-mm disk
Experimental: as §1, §3, §2

Salmonella spp. = assay type: cell-based; conditions: for Zone of Inhibition in Dark: 10 mg/ml dye on 6-mm disk
Experimental: as §1, §3, §2

E. coli = assay type: cell-based, Escherichia coli; conditions: for Zone of Inhibition in Dark: 10 mg/ml dye on 6-mm disk
Experimental: as §1, §3, §2

| Structure (SMILES) | Zone of Inhibition in Dark (Staph. Aureus) | Zone of Inhibition in Room Light (after 30 min.) (Staph. Aureus) | Zone of Inhibition in Room Light, 15 Minutes (Staph. Aureus) | Zone of Inhibition in Room Light Overnight (Staph. Aureus) | Zone of Inhibition in Dark (E. faecium) | Zone of Inhibition in Room Light, 15 Minutes (E. faecium) | Zone of Inhibition in Room Light Overnight (E. faecium) | Zone of Inhibition in Dark (C. albicans) | Zone of Inhibition in Room Light, 15 Minutes (C. albicans) | Zone of Inhibition in Room Light Overnight (C. albicans) | Zone of Inhibition in Dark (P. aeruginosa) | Zone of Inhibition in Room Light, 15 Minutes (P. aeruginosa) | Zone of Inhibition in Room Light Overnight (P. aeruginosa) | Zone of Inhibition in Dark (Salmonella spp.) | Zone of Inhibition in Room Light, 15 Minutes (Salmonella spp.) | Zone of Inhibition in Room Light Overnight (Salmonella spp.) | Zone of Inhibition in Dark (E. coli) | Zone of Inhibition in Room Light, 15 Minutes (E. coli) | Zone of Inhibition in Room Light Overnight (E. coli) |
| --- | --- | --- | --- | --- | --- | --- | --- | --- | --- | --- | --- | --- | --- | --- | --- | --- | --- | --- | --- |
| CN(C)c1ccc(C(=C2C=CC(=[N+](C)C)C=C2)c2ccc(N(C)C)cc2)cc1 [Crystal Violet] | 30 mm | 30 mm | – | – | – | – | – | – | – | – | – | – | – | – | – | – | – | – | – |
| CN(C)c1ccc2nc3ccc(=[N+](C)C)cc-3sc2c1 [Methylene Blue] | 18 mm | – | 20 mm | 28 mm | 16 mm | 16 mm | 19 mm | 12 mm | 12 mm | 18 mm | 0 mm | 0 mm | 0 mm | 0 mm | 0 mm | 0 mm | 8 mm | 0 mm | 0 mm |
| O=C([O-])c1c(Cl)c(Cl)c(Cl)c(Cl)c1-c1c2cc(I)c(=O)c(I)c-2oc2c(I)c([O-])c(I)cc12.[Na+].[Na+] [Rose Bengal disodium salt] | 23 mm | – | 21 mm | 36 mm | 19 mm | 19 mm | 34 mm | 0 mm | 0 mm | 13 mm | 0 mm | 0 mm | 13 mm | 7 mm | 8 mm | 19 mm | 0 mm | 0 mm | 11 mm |
| Cc1cc2nc3ccc(N(C)C)cc3[s+]c2cc1N.[Cl-] [Toluidine Blue O] | 20 mm | 19 mm | – | – | – | – | – | – | – | – | – | – | – | – | – | – | – | – | – |
